Values quoted from earlier work, collected in patent US20220177978A1, “METHODS OF PREDICTING AND PREVENTING CANCER IN PATIENTS HAVING PREMALIGNANT LESIONS” (INSERM (Institut National de la Santé et de la Recherche …, priority 2019, published 2022).

Columns and labels:
JAK2 = JAK2 (Homo sapiens, UniProt O60674)
JAK2, sequence (O60674 whole entry, species assumed): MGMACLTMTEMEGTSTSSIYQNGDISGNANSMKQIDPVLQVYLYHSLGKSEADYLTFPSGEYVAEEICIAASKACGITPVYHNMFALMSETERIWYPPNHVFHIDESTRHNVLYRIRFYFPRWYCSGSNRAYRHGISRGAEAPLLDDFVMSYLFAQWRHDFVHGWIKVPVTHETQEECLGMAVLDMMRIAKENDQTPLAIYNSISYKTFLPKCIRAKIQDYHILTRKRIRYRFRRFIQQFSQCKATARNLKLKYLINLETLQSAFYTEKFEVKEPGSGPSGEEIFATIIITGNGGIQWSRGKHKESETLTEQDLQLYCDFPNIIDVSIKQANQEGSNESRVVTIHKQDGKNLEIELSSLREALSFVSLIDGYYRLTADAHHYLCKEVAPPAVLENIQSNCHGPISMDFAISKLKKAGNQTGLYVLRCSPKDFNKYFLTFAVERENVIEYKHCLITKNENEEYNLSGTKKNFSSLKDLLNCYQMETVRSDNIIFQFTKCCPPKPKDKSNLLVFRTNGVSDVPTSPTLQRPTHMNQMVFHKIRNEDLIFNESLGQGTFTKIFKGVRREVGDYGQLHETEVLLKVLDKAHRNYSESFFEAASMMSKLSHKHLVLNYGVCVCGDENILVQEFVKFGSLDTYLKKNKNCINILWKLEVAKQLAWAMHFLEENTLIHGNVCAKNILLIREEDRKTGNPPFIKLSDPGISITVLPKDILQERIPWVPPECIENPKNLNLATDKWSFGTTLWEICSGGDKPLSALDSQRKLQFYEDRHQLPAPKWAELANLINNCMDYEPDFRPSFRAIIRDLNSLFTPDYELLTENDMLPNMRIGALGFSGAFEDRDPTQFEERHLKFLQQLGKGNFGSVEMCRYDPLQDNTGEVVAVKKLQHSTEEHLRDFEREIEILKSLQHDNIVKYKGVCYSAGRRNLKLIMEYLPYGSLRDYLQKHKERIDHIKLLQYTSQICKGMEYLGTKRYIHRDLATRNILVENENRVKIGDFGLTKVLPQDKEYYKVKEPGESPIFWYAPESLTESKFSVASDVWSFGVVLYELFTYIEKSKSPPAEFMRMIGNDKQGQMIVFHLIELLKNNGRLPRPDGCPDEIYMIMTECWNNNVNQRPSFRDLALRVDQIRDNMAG

C[C@H](Nc1cc(-c2cnn(C)c2)cc(Nc2cnccn2)n1)c1ccc(F)cc1 [NS018]
IC50 (JAK2): < 1 nM
selectivity for JAK2 over other JAK-family kinases (other JAK-family kinases): 30-50 fold
